According to patent publication US7259172B2, “Inhibitors of β-lactamase” (priority 1999, dated 2007):
Counter-ions that a name gives are not always drawn. Like-named read-outs stand apart in the source and are kept apart here.

What was measured:
[1] = test system: Enterobacter cloacae [ATCC #23355]; format: cell-based; details: ratio antibiotic MIC without/with inhibitor
From the text: An increasing number of organisms produce enzymes that inhibit the actions of β-lactam antibiotics, so-called β-lactamases. […] The Minimum Inhibitory Concentration (MIC) test determines the lowest concentration of an antibiotic at which no visible bacterial growth occurs. This test permits comparisons to be made between bacterial growth in the presence of antibiotic alone (control) and bacterial growth in the presence of both an antibiotic and a novel (test) compound.
(§1) Frozen bacterial stocks were thawed to room temperature, and a few drops were placed on an appropriate plate; chocolate agar was used for H. influenzae, blood agar was used for all others. The plates were incubated overnight at 37° C. in air, except for H. influenzae, which was incubated in a CO2 incubator. The cultures were subcultured the following day, and the subcultures were again incubated overnight
A sterile loop was touched to 3 colonies and used to inoculate 1 mL of Mueller-Hinton Broth (MHB). […] 5 μL of the resultant inoculum solution contained ˜4×10^4 CFU/mL. Confirmation of the inoculum was performed by preparing a serial dilution to give 100 μL of a 5000-fold dilution, all of which was then plated onto an appropriate plate.
(§2) Each plate included 2 wells with no bacterial inoculum (negative control) and 2 wells with no test compound and no antibiotic (positive control). The plate was covered and incubated with gentle shaking for 16-20 hours at 37° C. in air (CO2 for H. influenzae). Absorbance was read at 540 nm (Multiskan Titertek mcc/340). Bacterial growth was scored as follows:
(§3) In some cases, the determination of MIC in the presence of test compound was performed at more than one concentration of the test compound.
The impact of the novel β-lactamase inhibitors is expressed as the ratio of the MIC determined in the absence of β-lactamase inhibitor to the MIC determined in the presence of the specified concentration of the β-lactamase inhibitor test compound.

[2] = biological target: P99 β-lactamase (class C) (Enterobacter cloacae, UniProt P05364); assay: biochemical
Procedure: Enzyme activity against the commercially available substrate, nitrocefin, was measured in the presence of various inhibitor concentrations. The P99 β-lactamase enzyme (1 mg/mL) was dissolved in 20 mM MOPS buffer at pH 7.50, and diluted 200-fold in the same buffer containing 0.1% BSA. Nitrocefin was stored as a 100 μM stock solution in 20 mM MOPS at pH 7.5. Stock solutions of test compounds were prepared in 10 mM MOPS at pH 7.5 (approximately 1 mg/mL)
The reaction at 25° C. was followed spectrophotometrically at 482 nm. IC50 values were determined from the dose-response plots of the initial rates vs. inhibitor concentration

[3] = test system: Haemophilus influenzae [ATCC #43163]; assay: Antibiotic MIC in presence and absence of β-lactamase inhibitor (synergy); format: cell-based; details: ratio antibiotic MIC without/with inhibitor; inhibitor 10 μg/mL
From the text: (§4) An increasing number of organisms produce enzymes that inhibit the actions of β-lactam antibiotics, so-called β-lactamases. The “strength” of β-lactam antibiotics can be improved by pairing them with compounds that inhibit bacterial enzyme β-lactamases. The Minimum Inhibitory Concentration (MIC) test determines the lowest concentration of an antibiotic at which no visible bacterial growth occurs. This test permits comparisons to be made between bacterial growth in the presence of antibiotic alone (control) and bacterial growth in the presence of both an antibiotic and a novel (test) compound.
(§5) • β-lactamase positive strains • β-lactam antibiotics • β-lactamase inhibitor compounds • appropriate bacterial growth medium β-Lactamase Positive Strains • Klebsiella oxytoca [ATCC#51983] • Staphylococcus aureus [MGH: MA#50848] • Enterococcus faecalis [ATCC#49757] • Enterobacter cloacae [ATCC#23355] • Haemophilus influenzae [ATCC#43163] β-Lactam antibiotics
as §1
(§6) A sterile loop was touched to 3 colonies and used to inoculate 1 mL of Mueller-Hinton Broth (MHB). The bacterial solution was diluted 18.8-fold (20 μL of bacterial solution in […] of broth). 5 μL of the resultant inoculum solution contained ˜4×10^4 CFU/mL. Confirmation of the inoculum was performed by preparing a serial dilution to give 100 μL of a 5000-fold dilution, all of which was then plated onto an appropriate plate. After incubation overnight at 37° C., the plate had 75-150 colonies.
as §2, with “In each well of a 96-well microtiter plate was combined 5 μL of bacterial inoculum, 90 μL of antibiotic dilutions, and 5 μL of test compound (or media for determination of the MIC of the antibiotic in the absence of test compound). Each” for “Each”
as §3
(§7) The impact of the novel β-lactamase inhibitors is expressed as the ratio of the MIC determined in the absence of β-lactamase inhibitor to the MIC determined in the presence of the specified concentration of the β-lactamase inhibitor test compound. […]

[4] = test system: Staphylococcus aureus [MGH:MA #50848]; assay: as above; format: cell-based; details: ratio antibiotic MIC without/with inhibitor; inhibitor 10 μg/mL
From the text: as §4, §5, §1, §6
as §2, with “In each well of a 96-well microtiter plate was combined 5 μL of bacterial inoculum, 90 μL of antibiotic dilutions, and 5 μL of test compound (or media for determination of the MIC of the antibiotic in the absence of test compound). Each” for “Each”
as §3, §7

[5] = test system: Pseudomonas aeroginosa [ATCC#12470-resistant]; assay: Synergy against highly resistant β-lactamase positive strains; format: cell-based
Procedure: as §1, §6
as §2, with “In each well of a 96-well microtiter plate was combined 5 μL of bacterial inoculum, 90 μL of antibiotic dilutions, and 5 μL of test compound (or media for determination of the MIC of the antibiotic in the absence of test compound). Each” for “Each”
as §3, §7
(§8) Following procedures identical to those described in Example 72, β-lactamase inhibitors were tested for their ability to enhance antibiotic efficacy against β-lactamase positive bacterial strains that are very highly resistant to β-lactam antibiotics.
(§9) • Enterobacter cloacae (derepressed) • Pseudomonas aeroginosa [ATCC#12470-resistant] • Stenotrophomonas maltophilia [ATCC#12968-resistant] • Pseudomonas aeroginosa [ATCC#98043010-intermediate resistance] • Stenotrophomonas maltopilia [ATCC#98043029-intermediate resistance]

[6] = test system: Enterobacter cloacae (derepressed); assay: as above; format: cell-based; details: derepressed strain
Procedure: as §1, §6
as §2, with “In each well of a 96-well microtiter plate was combined 5 μL of bacterial inoculum, 90 μL of antibiotic dilutions, and 5 μL of test compound (or media for determination of the MIC of the antibiotic in the absence of test compound). Each” for “Each”
as §3, §7, §8, §9

[7] = test system: Pseudomonas aeroginosa [ATCC#98043010-intermediate resistance]; assay: as above; format: cell-based
Procedure: as §1, §6
as §2, with “In each well of a 96-well microtiter plate was combined 5 μL of bacterial inoculum, 90 μL of antibiotic dilutions, and 5 μL of test compound (or media for determination of the MIC of the antibiotic in the absence of test compound). Each” for “Each”
as §3, §7, §8, §9

[8] = test system: Stenotrophomonas maltophilia [ATCC#12968-resistant]; assay: as above; format: cell-based
Procedure: as §1, §6
as §2, with “In each well of a 96-well microtiter plate was combined 5 μL of bacterial inoculum, 90 μL of antibiotic dilutions, and 5 μL of test compound (or media for determination of the MIC of the antibiotic in the absence of test compound). Each” for “Each”
as §3, §7, §8, §9

[9] = test system: Stenotrophomonas maltophilia [ATCC#98043029-intermediate resistance]; assay: as above; format: cell-based
Procedure: as §1, §6
as §2, with “In each well of a 96-well microtiter plate was combined 5 μL of bacterial inoculum, 90 μL of antibiotic dilutions, and 5 μL of test compound (or media for determination of the MIC of the antibiotic in the absence of test compound). Each” for “Each”
as §3, §7, §8, §9

[10] = Table 1
[11] = Class C β-lactamase [P99], Table 1, read-out: IC50 (μM) “C”

P99 β-lactamase (class C), sequence (P05364 21-381): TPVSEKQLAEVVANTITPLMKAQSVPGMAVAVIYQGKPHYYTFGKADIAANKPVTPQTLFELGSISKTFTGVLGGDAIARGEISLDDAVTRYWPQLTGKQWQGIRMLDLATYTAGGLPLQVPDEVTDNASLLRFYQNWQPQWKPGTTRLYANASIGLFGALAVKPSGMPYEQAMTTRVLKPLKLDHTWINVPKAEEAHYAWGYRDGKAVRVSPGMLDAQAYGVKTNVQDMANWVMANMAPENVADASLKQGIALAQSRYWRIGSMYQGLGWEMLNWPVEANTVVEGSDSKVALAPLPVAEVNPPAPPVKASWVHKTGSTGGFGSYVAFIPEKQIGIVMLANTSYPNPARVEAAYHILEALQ

Compound | Synergy Class C E. Cl ([1]; inhibitor 10 μg/mL) | IC50 [2] [µM] | Synergy Class A H. In. [3] | other results
CN(CP(=O)(O)Oc1ccc([N+](=O)[O-])cc1)S(=O)(=O)c1cccs1.N [Compound 47, [(2-Thiophenesulfonyl-N-methylamino)methyl]-phosphonic acid mono-(4-nitrophenyl) ester ammonium salt] | 2 | 276 | 1 | 
N.O=P(O)(Oc1cccnc1Cl)C(Cc1ccccc1)NS(=O)(=O)c1cccs1 (stereo not drawn) [Compound 46, [2-Phenyl-1-(thiophene-2-sulfonylamino)-ethyl]-phosphonic acid mono-(2-chloropyridin-3-yl) ester ammonium salt] | 1/1 | 188 | 1 | Synergy Class C E. Cl ([1]; inhibitor 1 μg/mL): 1/1; Synergy Class A St. A. [4]: 1
O=[N+]([O-])c1ccc(OP(=O)(O)CNS(=O)(=O)c2ccccc2)cc1 [compound 7] |  | 4 |  | 
O=[N+]([O-])c1ccc(OP(=O)(O)CNS(=O)(=O)c2cccs2)cc1 [compound 15] |  | 18 |  | 
CC(C)C(NS(=O)(=O)c1cccs1)P(=O)(O)Oc1ccc([N+](=O)[O-])cc1 (stereo not drawn) [Compound 52, [2-Methyl-1-thiophene-2-sulfonylamino)-propyl]-phosphonic acid mono-(4-nitrophenyl) ester ammonium salt] | 4 | 1400 | 1 | Synergy Class C E. Cl ([1]; inhibitor 1 μg/mL): 2; Synergy Class A St. A. [4]: 1
CC(C)C(NS(=O)(=O)c1cccs1)P(=O)(O)Oc1cccnc1Cl.N (stereo not drawn) [Compound 54, [2-Methyl-1-(thiophene-2-sulfonylamino)-propyl]-phosphonic acid mono-(2-chloropyridin-3-yl) ester ammonium salt] | 2 | 1800 | 1 | Synergy Class C E. Cl ([1]; inhibitor 1 μg/mL): 1; Synergy Class A St. A. [4]: 1
N.O=[N+]([O-])c1ccc(OP(=O)(O)C(Cc2ccccc2)NS(=O)(=O)c2cccs2)cc1 (stereo not drawn) [Compound 44, [2-Phenyl-1-(thiophene-2-sulfonylamino)-ethyl]-phosphonic acid mono-(4-nitrophenyl) ester ammonium salt] | 2/2 | 192 | 1 | Synergy Class C E. Cl ([1]; inhibitor 1 μg/mL): 2/2; Synergy Class A St. A. [4]: 1
O=[N+]([O-])c1ccc(OP(=O)(O)CNS(=O)(=O)c2ccccn2)cc1 [compound 31] |  | 136 |  | 
O=[N+]([O-])c1ccc(OP(=O)(O)NNS(=O)(=O)c2ccccc2)cc1 [compound 189] |  |  |  | IC50 [2, 11]: 62 µM
O=P(O)(CNS(=O)(=O)c1ccsc1)Oc1cccnc1 [compound 55] |  | 3600 |  | 
O=[N+]([O-])c1ccc(OP(=O)(O)CNS(=O)(=O)c2ccccc2Br)cc1 [compound 23] |  | 14 |  | 
O=[N+]([O-])c1ccc(OP(=O)(O)CNS(=O)(=O)c2cc3c(Cl)ccc(Cl)c3s2)cc1 [Compound 128, (5,8-dichlorobenzothiophene-2-sulfonyl)aminomethylphosphonic acid mono-(4-nitrophenyl) ester ammonium salt] | 16 | 0.1 |  | Synergy Resistant Pseudo. ([5]; inhibitor 1 μg/mL): 1; Synergy Resistant Pseudo. ([5]; inhibitor 10 μg/mL): 1; Synergy Resistant Ent. Cloacae ([6]; inhibitor 1 μg/mL): 1; Synergy Resistant Ent. Cloacae ([6]; inhibitor 10 μg/mL): 5; Synergy Intermed. Pseudo. ([7]; inhibitor 1 μg/mL): 1; Synergy Intermed. Pseudo. ([7]; inhibitor 10 μg/mL): 2; Synergy Resistant Stenotro. ([8]; inhibitor 1 μg/mL): 1; Synergy Resistant Stenotro. ([8]; inhibitor 10 μg/mL): 1; Synergy Intermed. Stenotro. ([9]; inhibitor 1 μg/mL): 1; Synergy Intermed. Stenotro. ([9]; inhibitor 10 μg/mL): 2; logP (physchem): 0.45
O=[N+]([O-])c1ccc(OP(=O)(O)CNS(=O)(=O)c2cc3ccccc3s2)cc1 [compound 77] |  | 0.4 |  | 
O=[N+]([O-])c1ccc(OP(=O)(O)CNS(=O)(=O)c2ccc([N+](=O)[O-])cc2)cc1 [compound 12] |  | 10 |  | 
O=[N+]([O-])c1ccc(OP(=O)(O)CN(Cc2ccccc2)S(=O)(=O)c2cc3ccccc3s2)cc1 [Compound 145, (2-Benzothiophenesulfonyl-N-benzylamino)-methyl]-phosphonic acid mono-(4-nitrophenyl) ester ammonium salt] | 4 | 94 |  | logP (physchem): 0.86
[(2-Benzothiophenesulfonyl-N-phenylethylamino)-methyl]-phosphonic acid mono-(4-nitrophenyl) ester ammonium salt [Compound 143] |  |  |  | Log P [10]: 1.17; IC50 [2, 11]: 133 µM
O=P(O)(CNS(=O)(=O)c1cccs1)Oc1cccc(Cl)c1 [compound 48] |  | 189 |  | 
[(2-Benzothiophenesulfonyl-N-ethylamino)-methyl]-phosphonic acid mono-(4-nitrophenyl) ester ammonium salt [Compound 144] |  |  |  | Log P [10]: −0.036; IC50 [2, 11]: 463 µM
N.O=[N+]([O-])c1ccc(OP(=O)(O)C(NS(=O)(=O)c2cccs2)c2ccccc2)cc1 (stereo not drawn) [Compound 53, [Phenyl-(thiophene-2-sulfonylamino)-methyl]-phosphonic acid mono-(4-nitrophenyl) ester ammonium salt] | 2/2 | 363 | 1 | Synergy Class C E. Cl ([1]; inhibitor 1 μg/mL): 2/2; Synergy Class A St. A. [4]: 1
CN(CP(=O)(O)Oc1ccc([N+](=O)[O-])cc1)S(=O)(=O)c1cc2ccccc2s1.N [Compound 142, [(2-Benzothiophenesulfonyl-N-methylamino)-methyl]-phosphonic acid mono-(4-nitrophenyl) ester ammonium salt] | 2 | 1300 |  | logP (physchem): -0.091
N.O=P(O)(Oc1cccnc1Cl)C(NS(=O)(=O)c1cccs1)c1ccccc1 (stereo not drawn) [Compound 60, [Phenyl-(thiophene-2-sulfonylamino)-methyl]-phosphonic acid mono-(2-chloropyridin-3-yl) ester ammonium salt] | 2 | 603 | 1 | Synergy Class C E. Cl ([1]; inhibitor 1 μg/mL): 1; Synergy Class A St. A. [4]: 1
CN(C)c1cccc(OP(=O)(O)CNS(=O)(=O)c2cccs2)c1 [compound 78] |  | 3000 |  | 
